ChEMBL document CHEMBL1126951, “Structure-based design of inhibitors of purine nucleoside phosphorylase. 2. 9-Alicyclic and 9-heteroalicyclic derivatives of 9-deazaguanine” (J Med Chem, 1993)

What was measured:
[1] = target: T1, Purine nucleoside phosphorylase (Bos taurus, UniProt P55859); assay: biochemical
T1 sequence (P55859 whole entry): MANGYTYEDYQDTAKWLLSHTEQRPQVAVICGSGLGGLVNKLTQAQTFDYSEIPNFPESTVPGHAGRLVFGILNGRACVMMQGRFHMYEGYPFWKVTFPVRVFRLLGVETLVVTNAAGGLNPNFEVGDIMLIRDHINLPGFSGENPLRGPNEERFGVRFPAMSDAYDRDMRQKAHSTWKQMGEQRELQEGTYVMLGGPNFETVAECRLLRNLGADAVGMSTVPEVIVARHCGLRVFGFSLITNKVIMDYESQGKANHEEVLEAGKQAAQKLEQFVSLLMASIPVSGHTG
Description: In vitro inhibition of purine nucleoside phosphorylase from calf spleen in 1 mM phosphate

[2] = target: T1, Purine nucleoside phosphorylase; assay: Inhibition of purine nucleoside phosphorylase from calf spleen in 50 mM phosphate

SMILES	IC50 [1]	IC50 [2]
Nc1nc2c(CC3CCCO3)c[nH]c2c(=O)[nH]1 (centres undefined)	70 nM	300 nM
Nc1nc2c(CC3CCCCCC3)c[nH]c2c(=O)[nH]1		860 nM
Nc1nc(O)c2[nH]cc(C3=CCCCC3)c2n1	1900 nM	19000 nM
Nc1nc2c(CC3CCCS3)c[nH]c2c(=O)[nH]1 (centres undefined)	11 nM	220 nM
Nc1nc(O)c2[nH]cc(CC3CCCSS3)c2n1 (centres undefined)		200 nM

Continued, values first:

IC50 [1]	IC50 [2]	SMILES
6600 nM	150000 nM	Nc1nc(O)c2[nH]c(N)c(CC3CCCCC3)c2n1
1000 nM	1000 nM	Nc1nc2c(CC3CCCNC3)c[nH]c2c(=O)[nH]1 (centres undefined)
	150000 nM	Nc1nc(O)c2[nH]cc(C3CCCCC3)c2n1
	820 nM	CC1CCCC(Cc2c[nH]c3c(=O)[nH]c(N)nc23)C1 (centres undefined)
